# From US20240270673A1, “PROCESS AND SYSTEM FOR THE RECOVERY OF GLYOXYLIC ACID” (Avantium Knowledge Centre B.V., priority 2021, published 2024)
# Experiment: Low-temperature crystallization of oxalic acid from aqueous glyoxylic acid/oxalic acid solutions (Crystal16 parallel crystallizer), liquid phase concentration after equilibration
# Type: physicochemical
# Conditions: liquid phase after equilibration over night
# Source text: Low-temperature crystallization experiments have been carried out on a series of solutions containing glyoxylic acid and oxalic acid at different concentrations.
# Solutions containing glyoxylic acid and oxalic acid at different concentrations have been prepared and were cooled under controlled conditions in a Crystal16™ parallel crystallizer (Technobis Crystallization Systems). After reaching the set temperature the mixture as left to equilibrate over night after which a sample of the liquid phase was taken to determine the concentration of oxalic acid and glyoxylic acid after crystallization.
# [1] = Entry 1, T setpoint 10 degree Celsius, at RT glyoxylic 150.4 gr/L, oxalic 58.8 gr/L
# [2] = Entry 2, T setpoint 5 degree Celsius, at RT glyoxylic 150.4 gr/L, oxalic 58.8 gr/L
# [3] = Entry 3, T setpoint 0 degree Celsius, at RT glyoxylic 150.4 gr/L, oxalic 58.8 gr/L
# [4] = Entry 4, T setpoint −5 degree Celsius, at RT glyoxylic 150.4 gr/L, oxalic 58.8 gr/L
# [5] = Entry 5, T setpoint 10 degree Celsius, at RT glyoxylic 310.6 gr/L, oxalic 44.1 gr/L
# [6] = Entry 6, T setpoint 5 degree Celsius, at RT glyoxylic 310.6 gr/L, oxalic 44.1 gr/L
# [7] = Entry 7, T setpoint 0 degree Celsius, at RT glyoxylic 310.6 gr/L, oxalic 44.1 gr/L
# [8] = Entry 8, T setpoint −5 degree Celsius, at RT glyoxylic 566.8 gr/L, oxalic 29.5 gr/L
smiles,measurement,setting,value
"O=CC(=O)O [glyoxylic acid, Glyoxylic acid]",Glyoxylic concentration at setpoint,[1],156.1 gr/L
same,Glyoxylic concentration at setpoint,[2],160.62 gr/L
same,Glyoxylic concentration at setpoint,[3],157.73 gr/L
same,Glyoxylic concentration at setpoint,[4],161.70 gr/L
same,Glyoxylic concentration at setpoint,[5],326.42 gr/L
same,Glyoxylic concentration at setpoint,[6],323.65 gr/L
same,Glyoxylic concentration at setpoint,[7],332.54 gr/L
same,Glyoxylic concentration at setpoint,[8],573.48 gr/L
O=C(O)C(=O)O [oxalic acid],Oxalic concentration at setpoint,[1],36.3 gr/L
same,Oxalic concentration at setpoint,[2],32.70 gr/L
same,Oxalic concentration at setpoint,[3],27.04 gr/L
same,Oxalic concentration at setpoint,[4],22.37 gr/L
same,Oxalic concentration at setpoint,[5],29.07 gr/L
same,Oxalic concentration at setpoint,[6],21.83 gr/L
same,Oxalic concentration at setpoint,[7],19.25 gr/L
same,Oxalic concentration at setpoint,[8],9.57 gr/L
